From paper PMC8811960, “A Novel 2-Carbon-Linked Dimeric Artemisinin With Potent Antileukemic Activity and Favorable Pharmacology” (Frontiers in Oncology, 2022) come the findings set out here.

Each structure is given as a SMILES string.

For one series, the system named is HEL. Nature of the series: alamarBlue growth inhibition, HEL. It counts as cell-based. Conditions: Homo sapiens, 48h, mean of 2 independent assays ± SD. Here is the method:
(§1) Cytotoxicity was assessed using alamarBlue assays (Life Technologies, Grand Island, NY) following manufacturer’s guidelines. Cell death was verified by Annexin V/7-aminoactinomycin D (7AAD) staining (BioLegend, San Diego, CA) per manufacturer’s guidelines.
(The colour change of resazurin is a common sign of viable cells or microbes.)

Series [1] is described as follows: Stability in human plasma (EDTA). Conditions: 10 µM, 37°C, 1h. It counts as in vitro ADME. As to the method: The metabolic stability of ART631 was assessed in human and mouse plasma and liver microsomes (LM). For phase I microsomal stability assays, analogs (10 µM in <1% acetonitrile) were incubated in PBS containing liver microsomes, with or without cofactors ([22]). Microsomal controls (without cofactors) were used to determine non-enzymatic degradation. All experiments were incubated at 37°C for 1h and performed in duplicate. Reactions were stopped with acetonitrile and analyzed as described below.
ART631 was extracted from 25 µL plasma or microsomal solutions with 100 µL acetonitrile containing artemisinin (i.e. the natural product) as internal standard. […] Mobile phase A was ammonium acetate (2mM) containing 0.1% formic acid, and mobile phase B was acetonitrile containing 0.1% formic acid. The gradient started with mobile phase B and was held at 40% for 0.5 minutes with a flow rate of 0.4 mL/min, then increased to 100% over 1.5 minutes and held for 2.0 minutes, and finally returned back to 40% mobile phase B and allowed to equilibrate for 2.0 minutes. An AB Sciex 5500 triple quadrupole mass spectrometer operated in positive electrospray ionization mode was used for the detection of ART631. For stability studies, the ratio of ART631 to the internal standard, artemisinin, was assessed. […]

For another series, the system named is THP1. Nature of the series: alamarBlue growth inhibition, THP1. The series is classed as cell-based. Conditions: Homo sapiens, THP-1, THP1, 48h, mean of 2 independent assays ± SD. Here is the method:
as §1

A further series relates to TF1. Nature of the series: alamarBlue growth inhibition, TF1. The series is classed as cell-based. Conditions: Homo sapiens, TF-1, TF1, 48h, mean of 2 independent assays ± SD. As to the method:
as §1

Series [2] in a line: Maximum tolerated dose in NRG mice. It counts as in vivo. As to the method:
Mice were dosed orally with ART631 at empirically determined maximally tolerated doses (MTDs) of 75 mg/kg ART631 as a single dose alone or 15 mg/kg as a multiple dose regimen (once daily x5), either alone or in combination with SOR (30 mg/kg/d) and VEN (150 mg/kg/d), for side-by-side comparison to the ART838, SOR and VEN combination evaluated previously ([20]). ART631, SOR, and VEN were mixed in vehicle and given as a single administration. Mice (n = 3/time point) were euthanized at 0.5, 1, 1.5, 2, 3, 4, 6, 8 and 12 h after dosing. ART631 was quantified in plasma as described below. Pharmacokinetic parameters were calculated from mean concentration-time data using non-compartmental methods in Phoenix WinNonlin version 8.3 (Certara, Princeton, NJ). The maximum plasma concentration (Cmax) and time to Cmax (Tmax) were the observed values. The AUClast was calculated using the log-linear trapezoidal method. AUC was extrapolated to infinity (AUCINF) by dividing the last quantifiable concentration by the terminal disposition rate constant (λz). The λz was determined from at least 3 points on the slope of the terminal phase of the concentration-time profile. The terminal half-life (T1/2) was determined by dividing 0.693 by λz. Apparent clearance (Cl/F) was calculated by dividing the dose administered by AUCINF. Apparent volume of distribution (V/F) was calculated by dividing Cl/F by λz. If the percent AUC extrapolated was >20% or the r^2 of λz was <0.85, the AUCINF, Cl/F, T1/2 and V/F were not reported.
In pilot experiments, the MTD of ART631 was determined, in NRG (host strain for our AML xenograft models) mice, to be 75 mg/kg PO (gavage) for a single dose, or 15 mg/kg/d PO x5d every 14 days. When ART631 was combined with 150 mg/kg/d VEN and/or 30 mg/kg/d SOR, as was done previously with ART838 ([20]), ART631 was tolerated at the multiple dose MTD, and no further dose adjustments were made. The PK of ART631 was assessed at the MTD.

In another series the test system is MOLM14. Nature of the series: alamarBlue growth inhibition, MOLM14. The series is classed as cell-based. Conditions: Homo sapiens, MOLM-14; MOLM14, 48h, alamarBlue, mean of 2 independent assays ± SD; read-out: IC50. As to the method:
as §1
In this experiment, provided to show the entire concentration:response range, MOLM14 AML cells were cultured with a range of concentrations of artesunate (AS), ART838, ART631, and ART576 for 48h. Graph indicates growth inhibition relative to vehicle (DMSO)-treated controls by alamarBlue absorbance assays. Data points and error bars represent mean and SD of 3 independent experiments done in triplicate.

For another series, the system named is DDIT3. Nature of the series: qRT-PCR for DDIT3 mRNA. The series is classed as cell-based, human. As to conditions: MOLM14, 18h, ART631 200 nM, ART838 200 nM, AS 10 uM, similar results in MV4;11 and ML2. As to the method:
Cells were pre-treated with […] ROS detection reagent 5-(and 6-)-chloromethyl-2’,7’-dichlorodihydrofluorescein diacetate (CM-H2DCFDA, Life Technologies) for 30 min, followed by the iron chelator deferoxamine mesylate (DFO; 11 mM) for 60 min. Cells were then treated with ART631 (200 nM) or DMSO control for 18h, with subsequent analysis by flow cytometry. Western blotting and quantitative reverse transcription PCR (qRT-PCR) to assess for molecular markers of ROS-mediated apoptosis were performed as previously described ([20]).
Figure 4 ART631 elevated ROS and CHOP levels and reduced MCL1 expression in MOLM14 AML cells. (A) MOLM14 AML cells were pre-treated with ROS detection reagent CM-H2DCFDA ([…]) for 30 min, pre-treated with deferoxamine mesylate (DFO; 11 mM) for 60 min, and then treated with ART631 (200 nM) or DMSO control for 18h. They were then analyzed by flow cytometry. Graph represents %CM-H2DCFDA fluorescence compared to vehicle (DMSO) control treated cells. Error bars represent SD from 3 independent experiments. (B) MOLM14 AML cells were treated for 18h with vehicle, AS (10 uM), ART838 (200 nM), ART631 (200 nM), cytarabine (AraC; 150 nM), or SOR (5 uM). Protein was isolated and western blotted for MCL1, BCL2, CHOP, and β-actin. (C) MOLM14 cells were treated as in (B) for 18h, total RNA isolated, cDNA synthesized, and SYBR Green qRT-PCR performed in triplicates. Ct values were normalized to housekeeping gene GAPDH and fold change shown relative to vehicle (DMSO) control. Error bars represent SD from 3 independent experiments done in triplicate.
For orientation: Quantitative PCR measures a nucleic acid by following its amplification.

In general, IC50 refers to the concentration that gives 50% inhibition. The term MTD denotes the highest dose tested that stayed within the study's limit of toxicity. In the case of `C=CCO/N=C(/C[C@H]1O[C@@H]2O[C@@]3(C)CC[C@H]4[C@H](C)CC[C@@H]([C@H]1C)[C@@]24OO3)[C@H]1O[C@@H]2O[C@@]3(C)CC[C@H]4[C@H](C)CC[C@@H]([C@H]1C)[C@@]24OO3` [ART631], the IC50 was 45 ± 5 nM in the series on HEL, 42 ± 2 nM in the series on THP1, 27 ± 2 nM with TF1 and 32 ± 4 nM in the series on MOLM14. Besides, the “percentage remaining, Plasma (EDTA) Human” value in series [1] turned out to be 60%. For the same compound, the “tolerability when combined with VEN and/or SOR” value in series [2] (ART631 at multiple dose MTD with 150 mg/kg/d VEN and/or 30 mg/kg/d SOR) is on record as “tolerated”. Moreover, the MTD in series [2] (mouse, in vivo, NRG mice, PO (gavage), single dose) came out at 75 mg/kg. For the same compound, the MTD at 5 d in series [2] (mouse, in vivo, NRG mice, PO x5d every 14 days, read-out: MTD, multiple dose) was determined as 15 mg/kg/day. Also, the “DDIT3 mRNA” value with DDIT3 is “increased”.
